pIC50, pKd: −log10 of the molar value.
Columns and labels:
Translocator protein [1] = molecular target: Translocator protein (Rattus norvegicus, UniProt P16257); test: Displacement of [3H]PK11195 from PBR in rat kidney mitochondrial membrane; type: cell membranes
[2] = Lipophilicity, log P at pH 7.4; type: physicochemical; settings: buffer
Translocator protein [3] = molecular target: Translocator protein (Homo sapiens, UniProt P30536); test: Binding affinity to human PBR
Sequence of Translocator protein (Homo sapiens, UniProt P30536) (P30536 whole entry): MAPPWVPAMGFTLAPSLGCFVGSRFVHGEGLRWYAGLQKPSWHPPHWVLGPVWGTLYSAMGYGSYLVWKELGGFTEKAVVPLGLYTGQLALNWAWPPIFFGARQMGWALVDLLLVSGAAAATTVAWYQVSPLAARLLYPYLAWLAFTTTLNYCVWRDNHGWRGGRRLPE

Sequence of Translocator protein (Rattus norvegicus, UniProt P16257) (P16257 whole entry, looked up): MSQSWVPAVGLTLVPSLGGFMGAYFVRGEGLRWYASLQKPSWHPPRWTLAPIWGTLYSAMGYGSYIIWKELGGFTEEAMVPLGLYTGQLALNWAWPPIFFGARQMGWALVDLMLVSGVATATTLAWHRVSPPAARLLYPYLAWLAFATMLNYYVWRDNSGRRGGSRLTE

Row | Compound | pIC50 (Translocator protein [1]) | other results
1 | CN(CCCF)C(=O)c1cc2ccccc2c(-c2ccccc2I)n1 | 9.55 | 
2 | CN(CCCF)C(=O)c1cc2ccccc2c(-c2cccc(I)c2)n1 | 8.85 | 
3 | CN(CCCF)C(=O)c1cc2ccccc2c(-c2ccc(I)cc2)n1 | 7.18 | 
4 | CN(CCF)C(=O)c1cc2ccccc2c(-c2ccccc2I)n1 | 6.35 | 
5 | CN(CCC[18F])C(=O)c1cc2ccccc2c(-c2ccccc2I)n1 |  | logD [2]: 3
6 | CCCCCCN(CCCCCC)C(=O)Cc1c(-c2ccc(F)cc2)[nH]c2ccccc12 |  | pKd (Translocator protein [3]): 8.40
7 | CN1C(=O)CN=C(c2ccc(Cl)cc2)c2cc(Cl)ccc21 [RO-54864] |  | pKd (Translocator protein [3]): 8.22

Reference: ChEMBL document CHEMBL1150372, “Synthesis, fluorine-18 radiolabeling, and in vitro characterization of 1-iodophenyl-N-methyl-N-fluoroalkyl-3-isoquinoline carboxamide derivatives as potential PET radioligands for imaging peripheral benzodiazepine receptor” (Bioorg Med Chem, 2008)
